PMC8201479, “Trisubstituted Pyrrolinones as Small-Molecule Inhibitors Disrupting the Protein–RNA Interaction of LIN28 and Let-7” (ACS Medicinal Chemistry Letters, 2021)

Experiments:
[1] = molecular target: T1, cold shock domain of LIN28A (residues 16–126) (Homo sapiens, UniProt Q9H9Z2); test: Thermal shift assay (nano-differential scanning fluorimetry); type: binding; conditions: 30 µM protein, compound 100 µM to 0.78 µM
T1 construct: cold shock domain construct LIN28 A (residues 16– 126)
T1 sequence (Q9H9Z2 16-126): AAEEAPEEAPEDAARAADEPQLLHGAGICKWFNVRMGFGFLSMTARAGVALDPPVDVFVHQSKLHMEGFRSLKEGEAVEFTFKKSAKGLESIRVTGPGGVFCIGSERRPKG
Description: was detected after incubation at room temperature using a TECAN Spark plate reader. Half maximal […]
inhibitory concentrations (IC50) were determined using GraphPad Prism 7.
Compound screening. High throughput screening was performed in low volume 384 well plates […]
(Corning 4514) with 30 µM compound, 40 nM LIN28A, and 2 nM preE-let-7f-1-FAM in FP assay […]
buffer. Compounds were transferred with an ECHO 520 liquid handler and protein and RNA were […]
added with a multidrop dispenser. Protein and RNA were added stepwise with a 30 min incubation […]
period in between. FP was detected after a final incubation of 15 min with an Envision plate reader […]
and fluorescence was measured with a Paradigm plate reader. A reaction without LIN28 served as a […]
negative control and one without compound was used as a positive control. The software Quattro […]
fluorescence was detected with a ChemiDoc M P (Bio-Rad) and 2 minutes of exposure time. […]
126) with and without compound was monitored using a NanoTemper Prometheus NT.48 nano - […]
differential scanning fluorimetry (nanoDSF) instrument at temperatures between 20 °C and 90 °C and a temperature slope of 1 °C per minute with an excitation power of 50–60 %. […] The ratio of intrinsic tryptophan fluorescence at 350 nm and 330 nm was measured and the first derivative was determined to detect the inflection points using the software of the device. […]

JAR cells = test: RT-qPCR of mature let-7 in JAR cells; type: cell-based, human; conditions: 24 h treatment
Description: differential scanning fluorimetry (nanoDSF) instrument at temperatures between 20 °C and 90 °C and a temperature slope of 1 °C per minute with an excitation power of 50–60 %. A total protein concentration of 30 µM and compound concentrations from 100 µM to 0.78 µM corresponding to […] to 0.039 % DMSO, respectively, were used. Compound and protein were incubated for 45 minutes at room temperature in buffer containing 30 mM NaH2PO4, 50 mM NaCl, 1 mM MgCl2, and 50 µM ZnCl2 at pH 8 and 10 µL sample was loaded to each nanoDSF standard capillary (NanoTemper). The ratio of intrinsic tryptophan fluorescence at 350 nm and 330 nm was measured and the first derivative was determined to detect the inflection points using the software of the device.
RT-qPCR. JAR cells (obtained from DSMZ, German Collection of Microorganisms and Cell Cultures, Braunschweig, Germany, DSMZ no. ACC462)1 were cultured in 24-well plates and treated with the compound (PH-31) for 24 h with a total DMSO concentration of 0.5 % in all wells. RNA was extracted using RNeasy Mini Kit (Qiagen) and 20 ng of total RNA was used for reverse transcription using the TaqMan microRNA Reverse Transcription Kit (Applied Biosystems) following the manufacturer's protocols. […]

O=C(C1=C(O)C(=O)N(c2ccc(O)c(C(=O)O)c2)C1c1ccc(-c2nccs2)cc1)c1ccc(Br)cc1 (stereo not drawn) [C902/PH-31]
thermal stability of the CSD of LIN28A [1]: concentration-dependent enhancement
level of mature let-7a (JAR cells): increased levels
level of mature let-7g (JAR cells): increased levels
